The values below come from patent publication US20040186170A1, “Benzofuran derivatives, pharmaceutical composition containing the same, and a process for the preparation of the active ingredient” (EGIS GYOGYSZERGYAR, priority 1998, published 2004).

One assay relates to Male Sprague-Dawley rats. Nature of the assay: Elevated plus-maze test on rats. It is filed as in vivo, rat. The following applies: for MED (in mg/kg) p.o.: 60 minutes prior to the test, based on the time spent in the open arms. The protocol:
Elevated Plus-Maze Test on Rats
The test was carried out according to a modified method of Pelow et al./J. Neurosci. Methods, 14, 149 (1985)/. The elevated plus-maze consists of two open and two 40 cm wall enclosed arms of the same size (50×15 cm) arranged in the shape of a cross. The arms of the same type are opposite to each other. The junction of the four arms forms a central square area (15×15 cm). The apparatus is made of a wooden material elevated to a height of 50 cm and illuminated by a dim light from above. Male Sprague-Dawley rats weighing 220 to 260 g were used for the experiment.
The rats were treated with the test or reference compounds 60 minutes prior to the test. The animals were then placed onto a central square area and were subjected to the test for 5 minutes. The following 4 different parameters were determined:
time spent in the open arms;
time spent in the closed arms;
number of entries into the open arms;
number of entries into the closed arms.
A compound was considered to be effective where significant increase was found either in the time spent in the open arms (in sec) or in the number of entries into the open arms when compared to the control animals (in percentage). Minimum effective doses (MED) were determined based on the time spent in the open arms for each compound examined. Buspirone was used as the reference material.

For assay [1], the system named is isolated perfused rat heart. In words: TTC prolonging effect in isolated Langendorff rat hearts (global ischemia).
Protocol: Measurement of the cardioprotective effect in ischemic rat heart (Langendorff) preparation
The time lapsed after starting global ischemia until the beginning of contracture (i.e. time to contracture=TTC) is prolonged by several cardioprotective compounds, thus, the effectiveness of the compounds can be examined by measuring TTC.
Male Sprague-Dawley rats weighing 300 to 350 g were injected with 2500 IU (0.5 ml) of heparin i.p. and 10 minutes later the animals were anaesthetized with sodium pentobarbital/5-ethyl-5-(1-methylbutyl)-2,4,6(1H,3H,5H)-pyrimidinetrione sodium salt/ in a dose of 60 mg/kg i.p. The heart was quickly excised, and the aorta was connected to a cannula fixed to a Langendorff apparatus. The heart was perfused at a constant pressure (8000 Pa) with a modified carbogenized Krebs-Henseleit solution. The composition of the solution was the following (in mM): NaCl 118, KCl 4.7, MgSO4 1.6, CaCl2 2.5, NaHCO3 24.88, KH2PO4 1.18, EDTA 0.5, glucose 11. Partial CO2 pressure and pH of the solution were maintained within the physiological limits (pCO2 4000-4650 Pa, pH=7.3-7.45).
A hole was cut in the wall of the left atrium and a water-filled plastic balloon attached to a metal cannula was inserted into the left ventricle. End diastolic pressure of the left ventricle was set to a value between 666-1333 Pa during the equilibration period by changing the volume of the liquid in the balloon, however, later it was not modified.
After a 20 minutes' equilibration period, the hearts were perfused for 10 minutes with the vehicle (0.04% of dimethyl sulfoxide), in case of the control group, or with a solution of the test substance at 10^−6 or 10^−5 M concentration, in case of the treated groups. The activity of the test compound was not examined further when, at the end of the 10 minutes' period, the systolic pressure of the left ventricle was reduced by more than 20%, compared to the control value determined before the treatment.
Global ischemia was initiated by completely shutting off the perfusate flow and carbogenization for 25 minutes. The time period from the beginning of ischemia until the formation of myocardial contracture i.e. an increase of 666 Pa in left ventricular end diastolic pressure (TTC) was measured.
3 parallel experiments were performed with the test compounds at each concentration and parameters of 3 additional vehicle (0.04% dimethyl sulfoxide) treated hearts were measured along with the test substance.
Individual TTC values were averaged, and the effect of the test substances was expressed as a percentage change compared to the vehicle treated group. […] As a reference substance, lemakalim i.e. (3S)-trans-3,4-dihydro-3-hydroxy-2,2-dimethyl-4-(2-oxo-1-pyrrolidinyl)-2H-1-benzpyrane-6-carbonitrile was used.
The target of a further assay is T1, 5-HT1A receptor (Rattus norvegicus, UniProt P19327).
T1 sequence (P19327 1-422): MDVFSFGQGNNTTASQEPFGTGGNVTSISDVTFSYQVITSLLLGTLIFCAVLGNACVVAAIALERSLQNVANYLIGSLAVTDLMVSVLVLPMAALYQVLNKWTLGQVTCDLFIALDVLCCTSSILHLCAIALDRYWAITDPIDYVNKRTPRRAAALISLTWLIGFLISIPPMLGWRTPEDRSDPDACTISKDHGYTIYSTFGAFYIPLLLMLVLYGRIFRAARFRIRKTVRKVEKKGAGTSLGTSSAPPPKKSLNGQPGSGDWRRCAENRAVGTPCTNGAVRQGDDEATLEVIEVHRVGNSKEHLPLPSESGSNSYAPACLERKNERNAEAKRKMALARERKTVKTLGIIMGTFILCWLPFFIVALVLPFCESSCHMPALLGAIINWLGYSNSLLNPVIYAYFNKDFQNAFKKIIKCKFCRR
Nature of the assay: 5-HT1A receptor binding assay.

The test system of a further assay is Male Wistar rats. In words: Anxiolytic effect, Vogel's conflict test. The following applies: half an hour before the examination, tolerated number of electric shocks.
The mark [2] stands for this setting: 10^−5 M, time to contracture, change compared to the vehicle treated group.
[3] abbreviates: 10^−6 M, time to contracture, change compared to the vehicle treated group.

Usually pKi stands for the Ki on a negative log10 scale, so that one unit is a factor of ten. Low readings indicate a high Ki, high ones a low Ki.

pKi: −log10 of the molar value. Counter-ions that a name gives are not always drawn. Like-named read-outs stand apart in the source and are kept apart here.

Protocol for Male Wistar rats: Determination of the Anxiolytic Effect on the Basis of Vogel's Conflict Test
The anxiolytic effect was examined by the method of Vogel et al./Vogel, J. R., Beer, B., Clody, D. E., Psychopharmacologia (Berl.), 21, 1 (1971)/. Male Wistar rats weighing 180 to 200 g were left to be thirsty for 48 hours and starved for 24 hours before the test. The substances to be examined and the carriers, respectively, were administered to the animals half an hour before the examination. In the test chamber, the rats were allowed to drink from the drinking tube protruding into the chamber. Following every 20th lick, the apparatus emitted an electric shock of 0.7 mA through the drinking tube. During the test lasting for 5 minutes, the number of those electric shocks was registered which the animals accepted in order to quench their thirst. The effect of the compounds was expressed as the increase of the tolerated number of electric shocks in percentage.
Meprobamate/2-methyl-2-propyltri-methylenecarbamate/ was used as the reference substance.

As to `COc1ccc2cc(C3CCN(CC(O)COc4cccc5c4OC(C)(C)C5)CC3)ccc2c1.Cl` (stereo not drawn) [Example 23, 1-/3-(2,2-Dimethyl-2,3-dihydrobenzofuran-7-yloxy)-2-hydroxypropyl/-4-(6-methoxynaphth-2-yl)piperidine hydrochloride], in the assay on Male Sprague-Dawley rats, the “MED (in mg/kg) p.o.” value was 3 mg/kg.

In the case of `CC1(C)Cc2cccc(OCC(O)CN3CCN(c4ccc(F)cc4)CC3)c2O1` (stereo not drawn) [Example 63, 1-/3-(2,2-Dimethyl-2,3-dihydrobenzofuran-7-yloxy)-2-hydroxypropyl/-4-(4-fluorophenyl)-piperazine], the “TTC change (in %) at 10^−5 M” value in assay [1] (setting [2]) is 111%. Also, the “TTC change (in %) at 10^−6 M” value in assay [1] (setting [3]) was −3%.

Turning to `CC1(C)Cc2cccc(OCC(O)CN3CCC(O)(c4cccc(Cl)c4)CC3)c2O1` (stereo not drawn) [Example 24, 1-/3-(2,2-Dimethyl-2,3-dihydrobenzofuran-7-yloxy)-2-hydroxypropyl/-4-hydroxy-4-(3-chloro-phenyl)-piperidine hydrochloride], the “TTC change (in %) at 10^−6 M” value in assay [1] was 47%. Besides, the “MED (in mg/kg) p.o.” value in the assay on Male Sprague-Dawley rats was found to be 3 mg/kg. This molecule also gave a pKi on 5-HT1A receptor of 7.92.

`CC1(C)Cc2cccc(OCC(O)CN3CCC(C#N)(c4ccccc4)CC3)c2O1.Cl` (stereo not drawn) [Example 41, 1-/3-(2,2-Dimethyl-2,3-dihydrobenzofuran-7-yloxy)-2-hydroxypropyl/-4-cyano-4-phenyl-piperidine hydrochloride]: in assay [1], the “TTC change (in %) at 10^−5 M” value stood at 53% and the “TTC change (in %) at 10^−6 M” value worked out at 32%.

Turning to `CC1(C)Cc2cccc(OCC(O)CN3CC=C(c4cccc(C(F)(F)F)c4)CC3)c2O1.Cl` (stereo not drawn) [Example 8, 1-/3-(2,2-Dimethyl-2,3-dihydrobenzofuran-7-yloxy)-2-hydroxypropyl/-4-(3-trifluoromethyl-phenyl)-1,2,3,6-tetrahydropyridine hydrochloride], the “TTC change (in %) at 10^−5 M” value in assay [1] (setting [2]) worked out at 90%. Besides, in assay [1] (setting [3]), the “TTC change (in %) at 10^−6 M” value is 43%.

Take `CCCC(C)(COC(N)=O)COC(N)=O` [meprobamate, 2-methyl-2-propyltri-methylenecarbamate, reference compound]: the “MED in mg/kg ip.” value in the assay on Male Wistar rats is 50 mg/kg.

For the molecule `O=C1CC2(CCCC2)CC(=O)N1CCCCN1CCN(c2ncccn2)CC1` [buspirone, reference compound], the “MED (in mg/kg) p.o.” value in the assay on Male Sprague-Dawley rats turned out to be 3 mg/kg.

On to `CC1(C)Cc2cccc(OCC(O)CN3CCC(O)(c4cccc(C(F)(F)F)c4)CC3)c2O1` (stereo not drawn) [Example 9, 1-/3-(2,2-Dimethyl-2,3-dihydrobenzofuran-7-yloxy)-2-hydroxypropyl/-4-hydroxy-4-(3-tri-fluoromethylphenyl)piperidine hydrochloride], for which, in assay [1], the “TTC change (in %) at 10^−6 M” value is 90% and the “TTC prolongation compared with lemakalim” value is reported as “surpasses remarkably also the effect of lemakalim”. In addition, on 5-HT1A receptor, the pKi is 7.70.

In the case of `CC1(C)Oc2ccc(C#N)cc2[C@@H](N2CCCC2=O)[C@@H]1O` [lemakalim, (3S)-trans-3,4-dihydro-3-hydroxy-2,2-dimethyl-4-(2-oxo-1-pyrrolidinyl)-2H-1-benzpyrane-6-carbonitrile, reference compound], in assay [1] (setting [2]), the “TTC change (in %) at 10^−5 M” value was found to be 55%. The “TTC change (in %) at 10^−6 M” value in assay [1] (setting [3]) amounted to 20%.

With `CC1(C)Cc2cccc(OCC(O)CN3CCN(c4cccc(F)c4)CC3)c2O1` (stereo not drawn) [Example 66, 1-/3-(2,2-Dimethyl-2,3-dihydrobenzofuran-7-yloxy)-2-hydroxypropyl/-4-(3-fluorophenyl)-piperazine], the “TTC change (in %) at 10^−5 M” value in assay [1] (setting [2]) is given as 66%. Also, the “TTC change (in %) at 10^−6 M” value in assay [1] (setting [3]) turned out to be 5%.

For `COc1cccc(N2CCN(CC(O)COc3cccc4c3OC(C)(C)C4)CC2)c1.Cl.Cl` (stereo not drawn) [Example 76, 1-/3-(2,2-Dimethyl-2,3-dihydrobenzofuran-7-yloxy)-2-hydroxypropyl/-4-(3-methoxyphenyl)-piperazine dihydrochloride], the “TTC change (in %) at 10^−5 M” value in assay [1] (setting [2]) is 80%. Moreover, in assay [1] (setting [3]), the “TTC change (in %) at 10^−6 M” value was determined as 25%.

As to `CC1(C)Cc2cccc(OCC(O)CN3CCC(O)(c4ccccc4)CC3)c2O1` (stereo not drawn) [Example 20, 1-/3-(2,2-Dimethyl-2,3-dihydrobenzofuran-7-yloxy)-2-hydroxypropyl/-4-hydroxy-4-phenyl-piperidine hydrochloride], in assay [1], the “TTC change (in %) at 10^−5 M” value is 65% and the “TTC change (in %) at 10^−6 M” value was found to be 18%. Also, at 5-HT1A receptor, the pKi was 8.22.

Consider `COc1ccc(N2CCN(CC(O)COc3cccc4c3OC(C)(C)C4)CC2)cc1` (stereo not drawn) [Example 68, 1-/3-(2,2-Dimethyl-2,3-dihydrobenzofuran-7-yloxy)-2-hydroxypropyl/-4-(4-methoxyphenyl)-piperazine], for which the “TTC change (in %) at 10^−5 M” value in assay [1] (setting [2]) was found to be 43%. The “TTC change (in %) at 10^−6 M” value in assay [1] (setting [3]) was 0%. In addition, in the assay on Male Wistar rats, the “MED in mg/kg ip.” value is listed as 20 mg/kg.

`COc1ccc(C2(O)CCN(CC(O)COc3cccc4c3OC(C)(C)C4)CC2)cc1` (stereo not drawn) [Example 26, 1-/3-(2,2-Dimethyl-2,3-dihydrobenzofuran-7-yloxy)-2-hydroxypropyl/-4-hydroxy-4-(4-methoxyphenyl)-piperidine]: the “TTC change (in %) at 10^−6 M” value in assay [1] turned out to be 43%. Besides, on 5-HT1A receptor, the pKi is 8.52.

On to `CC1(C)Cc2cccc(OCC(O)CN3CCC(O)(c4ccc(Cl)cc4)CC3)c2O1` (stereo not drawn) [Example 14, 1-/3-(2,2-Dimethyl-2,3-dihydrobenzofuran-7-yloxy)-2-hydroxypropyl/-4-hydroxy-4-(4-chloro-phenyl)piperidine], for which the pKi on 5-HT1A receptor was 8.00.

In the case of `COc1cccc(C2(O)CCN(CC(O)COc3cccc4c3OC(C)(C)C4)CC2)c1` (stereo not drawn) [Example 25, 1-/3-(2,2-Dimethyl-2,3-dihydrobenzofuran-7-yloxy)-2-hydroxypropyl/-4-hydroxy-4-(3-methoxyphenyl)-piperidine hydrochloride], in assay [1], the “TTC change (in %) at 10^−5 M” value is 59% and the “TTC change (in %) at 10^−6 M” value is 2%. Moreover, the “anxiolytic effect compared with buspirone” value in the assay with Male Sprague-Dawley rats (in words) is given as “superior by one order of magnitude to buspirone”. The “MED (in mg/kg) p.o.” value in the assay with Male Sprague-Dawley rats is on record as 0.3 mg/kg. The same molecule had a pKi on 5-HT1A receptor of 9.15.

As for `CC1(C)Cc2cccc(OCC(O)CN3CCN(c4ccc(Cl)cc4)CC3)c2O1` (stereo not drawn) [Example 73, 1-/3-(2,2-Dimethyl-2,3-dihydrobenzofuran-7-yloxy)-2-hydroxypropyl/-4-(4-chlorophenyl)-piperazine], the “TTC change (in %) at 10^−5 M” value in assay [1] (setting [2]) is recorded as 49%. The “TTC change (in %) at 10^−6 M” value in assay [1] (setting [3]) is on record as 19%.

As to `CC1(C)Cc2cccc(OCC(O)CN3CCC(O)(c4ccc(F)cc4)CC3)c2O1` (stereo not drawn) [Example 16, 1-/3-(2,2-Dimethyl-2,3-dihydrobenzofuran-7-yloxy)-2-hydroxypropyl/-4-hydroxy-4-(4-fluoro-phenyl)piperidine], in assay [1], the “TTC change (in %) at 10^−5 M” value is listed as 78% and the “TTC change (in %) at 10^−6 M” value is given as 5%. Besides, the “MED (in mg/kg) p.o.” value with Male Sprague-Dawley rats stood at 1 mg/kg. This molecule gave a pKi at 5-HT1A receptor of 8.52.

Turning to `Cc1ccc(C2(O)CCN(CC(O)COc3cccc4c3OC(C)(C)C4)CC2)cc1` (stereo not drawn) [Example 30, 1-/3-(2,2-Dimethyl-2,3-dihydrobenzofuran-7-yloxy)-2-hydroxypropyl/-4-hydroxy-4-(4-methyl-phenyl)piperidine hydrochloride], the negative-log Ki (pKi) on 5-HT1A receptor was 8.30.
